These results are taken from patent US20240173344A1, “USE OF GABAA RECEPTOR AS TARGET IN PREPARATION OR SCREENING OF DRUG FOR LOWERING BLOOD LIPID LEVEL, TREATING OBESITY, AND/OR IMPROVING METABOLISM” (SHANGHAI INSTITUTE OF ENDOCRINE AND METABOLIC DISEASES, priority 2022, published 2024).

In this experiment the test system is neurons in the DMV. The experiment can be described thus: Chemogenetic (DREADDs) inhibition of DMV neurons by CNO in obese mice: body weight, blood lipid, fecal TG, jejunal TG. The settings on record: single mice and mean; for Blood lipid level: Inhibition group (hM4D(Gi) virus + CNO i.p. 7 d). Type of experiment: in vivo, C57BL/6J mice. From the text: In the present disclosure, the mice were fed with a high-fat diet in which a mass percentage of fat was 60% for 12 weeks, and when a body weight reached 35 g or more, animal models of alimentary obesity were successfully constructed. At a formal stage of the experiment (starting on day 0 in FIG. 1A, FIG. 3A, FIG. 6A, and FIG. 7A), the mice were raised in single cages, during which a daily food intake of each mouse model was accurately recorded, the feces was collected before and after drug intervention, and a daily body weight curve was recorded.
The chemogenetic approach designer receptors exclusively activated by designer drugs (DREADDs) is a research method that controls neuronal excitability in a specific brain region in an animal model, where a downstream signaling pathway of a specific exogenous ligand clozapine N-oxide (CNO) is activated through an adeno-associated virus (AAV) modified by a G protein-coupled receptor (GPCR) to cause a change in neuronal excitability. […]
Four weeks after recovery from surgery, mice in the chemogenetic inhibition group and the control group each were intraperitoneally injected with CNO (Catalog No. BML-NS105, Enzo Life Sciences, USA) at a dose of 1.0 mg/kg BW every day to inhibit the neuronal activity of the DMV, and the daily food intake and body weight were measured and the feces was collected for the mice. The mice were sacrificed after being continuously injected with CNO for 7 d to inhibit the DMV, mouse tissue samples were collected, and physiological and metabolic indexes were detected and analyzed.
A method for determining TG in a sample was as follows: 20 mg to 30 mg of a sample was first weighed, a 5% NP40-containing lysis buffer was added, and a resulting mixture was homogenated and incubated in a metal bath at 95° C. for 5 min, which was repeated twice. […] 2 μl of the supernatant was added to each well, and after a chromogenic reaction was completed, a value of each well was determined by a microplate reader. […]

Several values for one entry are separate records, joined by “and”; a condition that tells them apart may be missing. Identical values can stand only once.

Consider `C[N+]1([O-])CCN(C2=Nc3cc(Cl)ccc3Nc3ccccc32)CC1` [CNO, clozapine N-oxide], for which the Blood lipid level is 0.7414 mM and 0.9111 mM and 0.6521 mM and 0.4645 mM and 0.8754 mM and 0.6342 mM and 0.7146 mM. In addition, the Blood lipid level (mean) was 0.7169 mM. Further, the “Body weight curve change percentage” value (Inhibition group (hM4D(Gi) virus in DMV, CNO 1.0 mg/kg BW i.p. daily), Day 0 baseline) worked out at 0.00%.
